In ChEMBL document CHEMBL6096675 (J Med Chem, 2025):
Activity calls are given as the source filed them. The calls are words filed in the database; no cut-off is given here.

Experiments:
[1] = Plasma concentration in SCID mouse xenografted with human NCI-H838 cells at 10 mg/kg, iv measured after 24 hrs by LC-MS/MS analysis; assay type: ADME, organism-based
[2] = Drug uptake in tumor of human NCI-H838 cells xenografted SCID mouse model at 10 mg/kg, iv measured after 24 hrs by LC-MS/MS analysis; assay type: ADME, organism-based, Neoplasm; conditions: read-out: Drug uptake
[3] = Plasma concentration in SCID mouse xenografted with human NCI-H838 cells at 10 mg/kg, iv measured after 48 hrs by LC-MS/MS analysis; assay type: ADME, organism-based
[4] = Plasma concentration in SCID mouse xenografted with human NCI-H838 cells at 10 mg/kg, iv measured after 168 hrs by LC-MS/MS analysis; assay type: ADME, organism-based; conditions: in vivo, iv, 10 mg/kg, 168 h
[5] = Drug uptake in tumor of human NCI-H838 cells xenografted SCID mouse model at 10 mg/kg, iv measured after 48 hrs by LC-MS/MS analysis; assay type: ADME, organism-based, Neoplasm; conditions: read-out: Drug uptake
[6] = Antiproliferative activity against human SMARCA4-deficient NCI-H838 cells assessed as inhibition of cell growth measured after 7 days by WST-8 assay; assay type: functional; conditions: NCI-H838, 168 h, time 7 day
[7] = Antiproliferative activity against human SMARCA4-deficient NCI-H1568 cells assessed as inhibition of cell growth measured after 7 days by WST-8 assay; assay type: functional; conditions: NCI-H1568, 168 h, time 7 day
[8] = Antiproliferative activity against human SMARCA4-deficient NCI-H1944 cells assessed as inhibition of cell growth measured after 7 days by WST-8 assay; assay type: functional; conditions: NCI-H1944, 168 h, time 7 day
[9] = Antiproliferative activity against human SMARCA4-deficient NCI-H1693 cells assessed as inhibition of cell growth measured after 7 days by WST-8 assay; assay type: functional; conditions: NCI-H1693, 168 h, time 7 day
NCI-H1792 = test: Antiproliferative activity against human SMARCA4-wild type NCI-H1792 cells assessed as inhibition of cell growth measured after 7 days by WST-8 assay; assay type: functional; conditions: NCI-H1792, 168 h, time 7 day
SK-MEL-28 = test: Antiproliferative activity against human SMARCA4-wild type SK-MEL-28 cells assessed as inhibition of cell growth measured after 7 days by WST-8 assay; assay type: functional; conditions: SK-MEL-28, 168 h, time 7 day
[10] = Antiproliferative activity against human […] NCI-H1975 cells assessed as inhibition of cell growth measured after 7 days by WST-8 assay; assay type: functional; conditions: NCI-H1975, 168 h, time 7 day
SK-MEL-5 = test: Antiproliferative activity against human SMARCA4-deficient SK-MEL-5 cells assessed as maximal inhibition of cell growth measured after 7 days by WST-8 assay relative to control; assay type: functional; conditions: time 7 day
[11] = Antiproliferative activity against human SMARCA4-deficient NCI-H1693 cells assessed as maximal inhibition of cell growth measured after 7 days by WST-8 assay relative to control; assay type: functional; conditions: time 7 day
[12] = Cmax in mouse at 1 mg/kg, iv; assay type: ADME, organism-based; conditions: in vivo
[13] = AUC (0 to 24hrs) in mouse at 1 mg/kg, iv; assay type: ADME, organism-based; conditions: in vivo
[14] = Volume of distribution of steady state in mouse at 1 mg/kg, iv; assay type: ADME, organism-based; conditions: in vivo, read-out: Vdss
[15] = Half life in rat at 1 mg/kg, iv; assay type: ADME, organism-based; conditions: in vivo
[16] = Volume of distribution of steady state in rat at 1 mg/kg, iv; assay type: ADME, organism-based; conditions: in vivo, read-out: Vdss
[17] = Plasma concentration in mouse xenografted with human H838 cells at 10 mg/kg, iv single dose measured after 6 hrs by LC-MS/MS analysis; assay type: ADME, organism-based, NCI-H838
[18] = Plasma concentration in mouse xenografted with human H838 cells at 10 mg/kg, iv single dose measured after 48 hrs by LC-MS/MS analysis; assay type: ADME, organism-based, NCI-H838
[19] = Plasma concentration in mouse xenografted with human H838 cells at 10 mg/kg, iv single dose measured after 168 hrs by LC-MS/MS analysis; assay type: ADME, organism-based, NCI-H838; conditions: in vivo
[20] = Drug uptake in tumor of mouse xenografted with human H838 cells at 10 mg/kg, iv single dose measured after 6 hrs by LC-MS/MS analysis; assay type: ADME, organism-based, Neoplasm, NCI-H838; conditions: read-out: Drug uptake
[21] = Plasma concentration in mouse xenografted with human MV4-11 cells at 30 mg/kg, iv single dose measured after 24 hrs by LC-MS/MS analysis; assay type: ADME, organism-based
[22] = Plasma concentration in mouse xenografted with human MV4-11 cells at 30 mg/kg, iv single dose measured after 168 hrs by LC-MS/MS analysis; assay type: ADME, organism-based
[23] = Drug uptake in tumor of mouse xenografted with human MV4-11 cells at 30 mg/kg, iv single dose measured after 24 hrs by LC-MS/MS analysis; assay type: ADME, organism-based, Neoplasm; conditions: read-out: Drug uptake
[24] = Metabolic stability in rat liver microsomes assessed as half life; assay type: ADME, Microsome
[25] = Metabolic stability in human liver microsomes assessed as half life; assay type: ADME, Microsome
[26] = Plasma stability in mouse plasma assessed as half life; assay type: ADME, cell-free
[27] = Plasma stability in rat plasma assessed as half life; assay type: ADME, cell-free
[28] = Plasma stability in human plasma assessed as half life; assay type: ADME, cell-free
Cytochrome P450 2D6 = Cytochrome P450 2D6 (Homo sapiens, UniProt P10635); test: Inhibition of CYP2D6 (unknown origin); assay type: ADME
Cytochrome P450 3A4 [29] = molecular target: T1, Cytochrome P450 3A4 (Homo sapiens, UniProt P08684); test: Inhibition of CYP3A4 (unknown origin) using midazolam as substrate; assay type: ADME
Cytochrome P450 3A4 [30] = molecular target: T1, Cytochrome P450 3A4; test: Inhibition of CYP3A4 (unknown origin) using testosterone as substrate; assay type: ADME
NCI-H838 [31] = test: In vivo anti-tumor activity against human NCI-H838 cells xenografted in SCID mouse assessed as assessed as inhibition of tumor growth at 10 mg/kg, iv measured after 3 weeks relative to control; assay type: functional; conditions: NCI-H838, 504 h, read-out: TGI
NCI-H838 [32] = test: In vivo anti-tumor activity against human NCI-H838 cells xenografted in SCID mouse assessed as assessed as inhibition of tumor growth at 30 mg/kg, iv measured after 3 weeks relative to control; assay type: functional; conditions: NCI-H838, 504 h, read-out: TGI
[33] = Toxicity in SCID mouse xenografted with human H838 cells assessed as body weight loss at 30 mg/kg, iv measured after 3 weeks; assay type: organism-based; conditions: in vivo, 504 h
[34] = Toxicity in SCID mouse xenografted with human H838 cells assessed as toxicity signs at 30 mg/kg, iv measured after 3 weeks; assay type: organism-based; conditions: in vivo, 504 h
NCI-H838 [35] = test: In vivo anti-tumor activity against human NCI-H838 cells xenografted in SCID mouse assessed as assessed as inhibition of tumor growth at 10 mg/kg, iv treated for 3 weeks measured after treatment stop; assay type: functional, organism-based
[36] = Toxicity in SCID mouse assessed as body weight loss at 50 mg/kg, iv twice a week; assay type: organism-based; conditions: in vivo
[37] = Toxicity in SCID mouse assessed as toxicity signs at 50 mg/kg, iv twice a week; assay type: organism-based; conditions: in vivo
NCI-H838 [38] = test: In vivo anti-tumor activity against SMARCA4-deficient human NCI-H838 cells xenografted in SCID mouse assessed as assessed as inhibition of tumor growth at 10 to 30 mg/kg, iv weekly once; assay type: functional, organism-based; conditions: dose 10-30 mg/kg

T1 sequence (P08684 whole entry): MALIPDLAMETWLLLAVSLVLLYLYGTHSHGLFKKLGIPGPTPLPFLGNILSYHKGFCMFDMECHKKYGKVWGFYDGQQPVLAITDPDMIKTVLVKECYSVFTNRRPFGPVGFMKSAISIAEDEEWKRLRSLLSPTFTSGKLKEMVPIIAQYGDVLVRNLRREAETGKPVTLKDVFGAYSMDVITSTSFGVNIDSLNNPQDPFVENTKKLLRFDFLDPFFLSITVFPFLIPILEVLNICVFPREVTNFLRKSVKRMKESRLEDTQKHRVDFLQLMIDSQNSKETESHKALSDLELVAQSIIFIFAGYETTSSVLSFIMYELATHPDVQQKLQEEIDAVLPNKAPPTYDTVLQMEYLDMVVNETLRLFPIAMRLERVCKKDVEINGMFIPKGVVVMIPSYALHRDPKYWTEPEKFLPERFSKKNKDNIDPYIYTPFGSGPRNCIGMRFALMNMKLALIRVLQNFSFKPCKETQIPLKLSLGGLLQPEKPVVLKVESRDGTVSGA
Cytochrome P450 2D6, sequence (P10635 whole entry): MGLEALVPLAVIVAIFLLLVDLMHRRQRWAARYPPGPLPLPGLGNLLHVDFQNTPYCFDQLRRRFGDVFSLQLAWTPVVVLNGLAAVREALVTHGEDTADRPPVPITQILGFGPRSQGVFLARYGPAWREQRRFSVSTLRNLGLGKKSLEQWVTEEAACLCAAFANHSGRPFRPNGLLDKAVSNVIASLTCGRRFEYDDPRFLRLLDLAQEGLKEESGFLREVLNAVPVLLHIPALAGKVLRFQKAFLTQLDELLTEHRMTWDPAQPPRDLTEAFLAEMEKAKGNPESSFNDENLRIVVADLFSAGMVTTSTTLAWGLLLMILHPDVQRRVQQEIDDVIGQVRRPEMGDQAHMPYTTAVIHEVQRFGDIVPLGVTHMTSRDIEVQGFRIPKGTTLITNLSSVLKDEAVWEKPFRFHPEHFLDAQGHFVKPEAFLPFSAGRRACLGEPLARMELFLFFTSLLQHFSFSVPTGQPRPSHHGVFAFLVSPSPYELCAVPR

concentration at 24 h [1]: 50 ng/mL
concentration at 24 h [2]: 400 ng/mL
concentration at 48 h [3]: 15 ng/mL
Cp [4]: Below_limit_of_detection
concentration at 48 h [5]: 437 ng/mL
GI50 (NCI-H1792): > 10000 nM
GI50 (SK-MEL-28): > 10000 nM
Cmax [12]: 2230 ng/mL
AUC(0-t) [13]: 1740 ng·h/mL
Vd [14]: 1.9 L/kg
half-life [15]: 6.3 h
Vd [16]: 0.9 L/kg
concentration at 6 h [17]: 585 ng/mL
concentration at 48 h [18]: 15 ng/mL
Cp [19]: Below_limit_of_detection
concentration at 6 h [20]: 608 ng/mL
concentration at 24 h [21]: 139 ng/mL
concentration at 168 h [22]: 19 ng/mL
concentration at 24 h [23]: 2290 ng/mL
half-life [24]: > 1 h
half-life [25]: > 1 h
half-life [26]: > 2 h
half-life [27]: > 2 h
half-life [28]: > 2 h
IC50 (Cytochrome P450 2D6): > 100000 nM
IC50 (Cytochrome P450 3A4 [29]): > 100000 nM
IC50 (Cytochrome P450 3A4 [30]): > 100000 nM
SMILES: Cc1ncsc1-c1ccc([C@H](CN2CCOCC2)NC(=O)[C@@H]2C[C@@H](O)CN2C(=O)[C@@H](n2cc([C@H]3CC[C@H](CN4CCC(c5ccc6c(c5)-n5c(nc(=O)c7c(Cl)cccc75)C65CCCCC5)CC4)CC3)nn2)C(C)(C)C)cc1
GI50 [6]: 9.5 nM
GI50 [7]: 2.2 nM
GI50 [8]: 9.8 nM
GI50 [9]: 4.8 nM
GI50 [10]: > 10000 nM
Imax (SK-MEL-5): 95%
Imax [11]: 85%
inhibition in vivo at 10 mg/kg (NCI-H838 [31]): 87%
inhibition in vivo at 30 mg/kg (NCI-H838 [32]): 91%
Activity [33]: Non-toxic
Activity [34]: Non-toxic
Activity (NCI-H838 [35]): inactive
Activity [36]: Non-toxic
Activity [37]: Non-toxic
Activity (NCI-H838 [38]): Active
